In PMC8953266, “The Transthyretin/Oleuropein Aglycone Complex: A New Tool against TTR Amyloidosis” (Pharmaceuticals, 2022):

Key:
transthyretin (wt-TTR) = target: T1, transthyretin (wt-TTR) (Homo sapiens, UniProt P02766); experiment: ligand fluorescence titration (blue shift of OleA emission, fitted to a binding equilibrium); urea unfolding shows stabilization
T1 construct: recombinant wt-TTR, homotetramer

transthyretin (L55P-TTR) = target: T2, transthyretin (L55P-TTR) (Homo sapiens, UniProt P02766, L75P); experiment: ligand fluorescence titration (blue shift of OleA emission); noisier, and no stabilization in urea unfolding; type: binding
T2 construct: recombinant L55P-TTR, homotetramer

- Kd (transthyretin (wt-TTR)): 3.23 ± 0.32 µM
- Kd (transthyretin (L55P-TTR)): 3.12 ± 0.62 µM
Structure (SMILES): C/C=C1/C(O)OC=C(C(=O)OC)[C@H]1CC(=O)OCCc1ccc(O)c(O)c1 (mixture of isomers) [OleA, oleuropein aglycone]
